Laboratory results taken from patent publication EP0428854A2, “Process for the preparation of 4-(4-isobutylphenyl)-butyraldehyde” (BOEHRINGER INGELHEIM KG, priority 1989, dated 1991).

Molecular target: T1, PAF-Rezeptor (Homo sapiens, UniProt P25105)
T1 construct: endogenous in cells; host or cells: intact human platelets from blood of healthy donors, purified on Sepharose CL-2B
Test: [3H]PAF receptor binding on vital human platelets (competitive displacement of the radioligand)
Conditions: potency of the (-)-enantiomer relative to the other enantiomer, [³H]PAF binding
Source text: Überraschenderweise wurde gefunden, daß das (-)-Enantiomere 40-mal wirkungsstärker ist. Die pharmakologische Wirkung wurde anhand des nachfolgenden Experiments bestimmt: [³H]PAF-Rezeptor-Bindung an vitalen humanen Blutplättchen
Bestimmt wird die konkurrierende Wechselwirkung von Prüfsubstanzen (hier PAF-Antagonisten) mit der bekannten Wechselwirkung des Radioliganden [³H]PAF zum gleichen Rezeptor. Die Bindungsstudien wurden an vitalem menschlichen Thrombozyten vorgenommen. Blutproben von gesunden Spendern wurden mit ACD-Puffer verdünnt und zentrifugiert (15 Min., 160 x g). Das blättchenreiche Plasma wird durch Chromatographie an Sepharose CL-2B [Zum Eluieren: HEPES-Puffer, pH 7,4 20°C] gereinigt.
Definierte Mengen [z.B. 800 µl] der Blättchensuspension wurden 90 Min. bei Raumtemperatur inkubiert, d.h. vermischt mit: • a) einer […] [³H]PAF-Lösung, verdünnt mit Puffer. • b) mit einer 30 pmolaren [³H] PAF-Lösung, die gleichzeitig eine µmolare (nicht markierte) PAF-Lösung enthält, • c) mit der 30 pmolaren [³H]PAF-Lösung und den Lösungen der Prüfsubstanzen (unterschiedliche Konzentrationen) • a) Dient zur Ermittlung der totalen Bindung, • b) dient zur Ermittlung der unspezifischen Bindung.
Die Reaktion wurde durch Vakuumfiltration abgestoppt. Die Filter mit den Blutplättchen werden mit Szintilationsflüssigkeit versetzt und die verbliebene Radioaktivität in einem Counter gemessen. […]

T1 sequence (P25105 whole entry): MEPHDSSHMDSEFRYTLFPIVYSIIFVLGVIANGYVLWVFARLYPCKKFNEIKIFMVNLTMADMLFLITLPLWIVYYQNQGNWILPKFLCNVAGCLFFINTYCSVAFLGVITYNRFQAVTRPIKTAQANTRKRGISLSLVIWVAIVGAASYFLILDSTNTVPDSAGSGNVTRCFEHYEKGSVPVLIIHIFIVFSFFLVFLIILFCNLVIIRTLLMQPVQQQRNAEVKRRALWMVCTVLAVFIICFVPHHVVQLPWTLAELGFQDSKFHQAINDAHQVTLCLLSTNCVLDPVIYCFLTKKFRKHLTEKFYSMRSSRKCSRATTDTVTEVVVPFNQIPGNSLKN

SMILES: Cc1nnc2n1-c1sc(CCc3ccc(CC(C)C)cc3)cc1C(c1ccccc1Cl)=NC2C (single isomer, unassigned; (-)) [(-)Enantiomer, (-)-4-(2-Chlorphenyl)-2-[2-(4-isobutylphenyl)ethyl]-6,9-dimethyl-6H-thieno[3,2-f][1,2,4]triazolo[4,3-a][1,4]diazepin]
- wirkungsstärker: 40 mal
